Experimental data published in patent US12031087B2, “Oxygenated solvents for improved production of oil and gas” (Board of Regents, The University of Texas System, priority 2019, dated 2024).

Columns and labels:
[1] = IFT experiments by spinning drop tensiometer; type: physicochemical; details: 347 K
Description: IFT experiments. […] During the measurement, the denser phase was placed into a horizontal tube first, and then a droplet of the less dense phase was placed into the horizontal tube while the tube was rotating. The droplet was deformed owing to the rotation, which was visualized by using a high-power monochromatic light-emitting diode and stroboscope. The shape of a droplet spinning in the capillary tube was recorded by a high-resolution camera.
IFT values were measured for four systems: (1) crude oil and RB, (2) 3p and 1.1-wt % 3 pRB, (3) crude oil and 1.1-wt % 3 pRB, and (4) crude oil diluted by 18.6 wt % 3p and 0.8-wt % 3 pRB. System 1 was at phase equilibrium. A certain level of mass transfer was expected during the IFT measurement for the other three pseudo-binary systems. In system 2, water could transfer from 1.1-wt % 3 pRB to the 3p-rich phase. An IFT was estimated by using the densities of 3p and 1.1-wt % 3 pRB. In system 3, 3p could be transferred from RB to crude oil, which reduced the density of the oleic phase. Therefore, the upper-limit and lower-limit density values were assigned for the oleic phase to calculate a possible range of IFTs for this system. System 4 was tested to validate the range of IFT values estimated for system 3.

[2] = Viscosity of crude oil/3p mixtures (in-line viscometer); type: physicochemical; details: 347 K
Description: Density and viscosity experiments. […] The system consists mainly of automated pumps, a sample accumulator, an in-line fluid densitometer, an in-line viscometer, an oven, and an effluent accumulator. The pump (Teledyne ISCO 100DX) maintained the system pressure automatically by water.
In the density measuring cell (Anton Paar DMA-HPM), fluid's density is measured in a U-shaped tube, in the range from 0 to 3000 kg/m^3. The instrument precision of the density meter is ±1 kg/m^3. Anton Paar DMA-HPM uses the method of oscillating U-tube for its density measurement, in which the sample's density is calculated from the sample's period of oscillation. The in-line viscometer (ViscoPro 2100) measures the viscosity of a fluid in the range from 0.2 to 2 cp. The instrument precision of the viscometer is ±0.02 cp and repeatability is ±0.5% of the reading. During the viscosity measurement, the magnetic piston is surrounded by the fluid sample and oscillates under magnetic force. The sample's viscosity is calculated from the time required for the piston to complete a two-way cycle. The viscometer and density meter were placed in a Despatch oven (model LAC2-18-8). Light-emitting diode screens that display measured data from the fluid densitometer and viscometer were connected outside the oven. The absolute pressure of the system was measured with a pressure gauge (Omega PX459-2.5KGI-EH).
Densities and viscosities were measured for the following mixtures of crude oil and 3p: 81.4 wt % crude oil and 18.6 wt % 3p (33 mol % 3p), 59.0 wt % crude oil and 41.0 wt % 3p (60 mol % 3p), and 35.1 wt % crude oil and 64.9 wt % 3p (80 mol % 3p). Each mixture was mixed in a glass bottle with a magnetic mixer before placing it in the accumulator.
Before each measurement, the system was cleaned thoroughly with toluene. Then, the system was dried by air and evacuated. Next, the fluid mixture was pumped into the system from the accumulator. Then, the temperature in the oven was increased to 347 K. When the temperature in the oven was stable, the mixture was measured for viscosities and densities at different pressures, ranging from 101 kPa to 10342 kPa.

[3] = Coreflooding of fractured cores with 3pRB or pure 3p slug and material balance (Example 3)
Description: Experimental Procedure for Coreflooding. Four Texas cream limestone cores were prepared for coreflooding experiments, having a diameter of 0.0254 m and a length of 0.229 m. […] The porosities, permeabilities and water and oil saturations were measured for all cores. […] The system includes two accumulators for oil and RB, a core holder, a manual pump to maintain the overburden pressure, a pressure gauge, a differential pressure gauge, fluid collectors, and an oven. […] Two Teflon strips of 0.001 m in width and 0.229 m in length were placed inside the fracture to keep an aperture of the fracture. The core halves were put together with the Teflon strips in place, and wrapped with a heat-shrinkable Teflon tube. Finally, the core was placed horizontally inside the core holder with the fracture vertically-oriented. FIG. 27 presents a schematic of the setup for the coreflooding experiments. […] After placing a fractured core in the core holder, the oven temperature was set to reservoir temperature (347 K). […] Fracture permeability was measured using a flow rate of 100 cm^3/hr. […] This range was calculated from available data of fracture conductivity, fracture width, and matrix permeability for shale plays. […] The fracture permeability was then calculated from the fracture aperture by the following equation: kf=b^2/12. […] Then, the produced oil for Δt is expressed as -VP2=([…]). […]

effect of 3p on IFT between oleic and aqueous phases ([1]; 1.1 wt % 3p in aqueous phase): essentially no effect
IFT ([1]; system 2: 3p and 1.1-wt % 3pRB, atmospheric pressure): 10.02 mN/m
μo^−1/2 of 3p-diluted oil ([2]; 33 mol % or 18.6 wt % 3p, atmospheric pressure): 1.2383 cp^−1/2
Viscosity ([2]; crude oil with 18.6 wt % (33 mol %) 3-pentanone, 134.38 kPa): 0.6522 cp
Viscosity ([2]; crude oil with 18.6 wt % (33 mol %) 3-pentanone, 1381.57 kPa): 0.6534 cp
Viscosity ([2]; crude oil with 18.6 wt % (33 mol %) 3-pentanone, 3448.00 kPa): 0.6533 cp
Viscosity ([2]; crude oil with 18.6 wt % (33 mol %) 3-pentanone, 6887.59 kPa): 0.6545 cp
Viscosity ([2]; crude oil with 18.6 wt % (33 mol %) 3-pentanone, 10336.00 kPa): 0.6561 cp
Viscosity ([2]; crude oil with 41.0 wt % (60 mol %) 3-pentanone, 157.89 kPa): 0.4609 cp
Viscosity ([2]; crude oil with 41.0 wt % (60 mol %) 3-pentanone, 1375.71 kPa): 0.4604 cp
Viscosity ([2]; crude oil with 41.0 wt % (60 mol %) 3-pentanone, 3448.00 kPa): 0.4596 cp
Viscosity ([2]; crude oil with 41.0 wt % (60 mol %) 3-pentanone, 6889.10 kPa): 0.4613 cp
Viscosity ([2]; crude oil with 41.0 wt % (60 mol %) 3-pentanone, 10337.52 kPa): 0.4592 cp
Viscosity ([2]; crude oil with 64.9 wt % (80 mol %) 3-pentanone, 135.9 kPa): 0.3267 cp
Viscosity ([2]; crude oil with 64.9 wt % (80 mol %) 3-pentanone, 1381.57 kPa): 0.3264 cp
Viscosity ([2]; crude oil with 64.9 wt % (80 mol %) 3-pentanone, 3446.55 kPa): 0.3242 cp
Viscosity ([2]; crude oil with 64.9 wt % (80 mol %) 3-pentanone, 6893.45 kPa): 0.3221 cp
Viscosity ([2]; crude oil with 64.9 wt % (80 mol %) 3-pentanone, 10340.41 kPa): 0.3205 cp
Structure (SMILES): CCC(=O)CC [3-pentanone]
oil viscosity reduction ([2]; oil diluted by 18.6 wt % (33 mol %) 3-pentanone): 21%
incremental oil recovery, chase RB after 3p slug ([3]; core #3 (Swi=0), after 0.36 PVI): 1.1 % OOIP
incremental oil recovery, chase RB after 3p slug ([3]; core #4 (Swi=0.28), after 1.97 PVI): 3.7 % OOIP
